Assay results published in PMC6814236, “Monitoring and characterizing soluble and membrane-bound ectonucleotidases CD73 and CD39” (PLoS ONE, 2019).

What was measured:
[1] = molecular target: T1, Recombinant Human 5'-Nucleotidase/CD73 (Homo sapiens, UniProt P21589); set-up: method as in PMID 18302942, PMID 24144488; conditions: reported by others; ref [25], [26]; cited from earlier work
T1 construct: purchased R&D Systems
T1 sequence (P21589 27-574): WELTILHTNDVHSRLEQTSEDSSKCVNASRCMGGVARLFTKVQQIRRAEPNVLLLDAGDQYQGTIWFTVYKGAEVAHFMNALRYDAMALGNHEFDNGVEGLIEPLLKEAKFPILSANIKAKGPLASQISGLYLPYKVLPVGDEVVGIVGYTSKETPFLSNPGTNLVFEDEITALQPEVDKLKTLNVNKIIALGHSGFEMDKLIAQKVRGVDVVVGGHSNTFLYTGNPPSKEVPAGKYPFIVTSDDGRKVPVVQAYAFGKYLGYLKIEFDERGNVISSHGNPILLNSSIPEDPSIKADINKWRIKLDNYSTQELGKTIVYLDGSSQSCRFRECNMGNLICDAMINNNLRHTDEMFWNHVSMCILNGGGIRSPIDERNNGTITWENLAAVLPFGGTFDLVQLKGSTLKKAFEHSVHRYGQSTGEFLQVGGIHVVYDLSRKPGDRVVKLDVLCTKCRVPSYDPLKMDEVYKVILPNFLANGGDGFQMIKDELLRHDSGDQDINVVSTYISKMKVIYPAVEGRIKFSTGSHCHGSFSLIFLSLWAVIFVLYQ

luciferase = assay: Control test of the compound on luciferase activity; format: biochemical; conditions: control for assay interference
Description: Although we have not tested this assay using orthogonal assay, very recent publication used this technology (AMP Glo) to develop what they called “an exceptionally potent inhibitor of human […]” (Bowman CE, da Silva RG, Pham A, Young SW. An exceptionally potent inhibitor of human CD73. Biochemistry 2019; 58: 3331-3334) and compared their kinetic data using inorganic phosphate release and the data confirmed the validity of bioluminescence approach. Furthermore, since we launched ADP Glo for kinases and ATPases, it has been cited in over 1500 citations as well as numerus patents, and it is the main assay used for large scale screening for inhibitors in HTS laboratories. Besides, we have not found potent inhibitors of this assay other than few luciferase inhibitors which would be excluded when controls were run simultaneously. Protein concentration used in western blots for CD39 or CD39 in cells should be shown using either a housekeeping control, or the total protein concentration shown if other methods were used. Alternatively, a FACS based assay could be performed to show expression of cell surface […] or CD39.

[2] = system: T2, membrane-associated CD39 of Farage cells; assay: Cell-based membrane-associated CD39 activity; set-up: species or system human; conditions: 50μM inhibitor, Farage cells 200K per ml, 5 μM ATP, 37°C
T2 construct: endogenous in cells; host or cells: Farage
Description: For CD39 activity, since it uses both ADP and ATP, we determined its activity using 5 μM final concentration each, as substrate as described above. In a separate plate or microcentrifuge tube, a 25μl aliquots were withdrawn from each well at desired time point and delivered into an assay solid white plate (Corning Costar 3912 or equivalent).
For ADP as substrate, detection of remaining ADP was carried out by preparing AMP Detection Solution (adding 10μl AMP-Glo™ Reagent II to one-ml of Kinase-Glo® One Solution, gently mixing well by inverse tube couple times). To the 25 μl aliquoted from the medium supernatant that was cooled down to room temperature, 25μl of AMP Detection Solution is added to each well, mixed well and incubated for 60min at 23°C, the plates were read using luminometer.
For ATP as substrate, detection of remaining ATP, was carried out using 25μl withdrawn from the medium supernatant that was cooled down to room temperature and 25μl of Kinase-Glo® One Solution were added to each well, mixed well and incubated for 10min at 23°C, then the plate was read using luminometer.
• B Suspension cells. Cells were harvested and washed two times with HBSS by centrifugation at 1,000 rpm at room temperature for 8~10min, discarding the supernatant and cell pellets were diluted to a desired cell number per ml before experiments. […]

Nc1ncnc2c1ncn2[C@@H]1O[C@H](COP(=O)(O)CP(=O)(O)O)[C@@H](O)[C@H]1O [AMP-CP, Adenosine 5'-(α, β-methylene) diphosphate]
IC50 [1]: 236 nM

[Na+].[Na+].[Na+].[Na+].[Na+].[Na+].[O]=[W](=[O])([O-])[O-].[O]=[W](=[O])([O-])[O-].[O]=[W](=[O])([O-])[O-].[O]=[W](=[O])=[O].[O]=[W](=[O])=[O].[O]=[W](=[O])=[O].[O]=[W](=[O])=[O].[O]=[W](=[O])=[O].[O]=[W](=[O])=[O].[O]=[W](=[O])=[O].[O]=[W](=[O])=[O].[O]=[W](=[O])=[O] [POM1, Sodium metatungstate]
effect on luciferase activity (luciferase): no inhibitory effect | inhibition of membrane-associated CD39 activity [2]: inhibited
